Experimental data as given in US10842793B2, “Inhibitors of the unconventional secretion of fibroblast growth factor 2 (FGF2) by tumor cells and uses thereof” (Universität Heidelberg, priority 2016, dated 2020).
Entries after “also recorded” stand apart in the source; their conditions may differ.

test system: CHO cells stably expressing FGF2-GFP; assay: FGF2-GFP secretion by cell surface biotinylation; format: cell-based; details: 10, 25 and 50 μM; mock 0.5% DMSO = 100%
Description: A stable CHO cell line expressing an FGF2-GFP fusion protein in a doxycycline-dependent manner was used to quantify FGF2 transport to cell surfaces in the absence and presence of the small molecule inhibitors introduced in FIGS. 4, 5, 6 and 7. As detailed in Experimental Procedures, following cultivation of cells in the presence of compounds as indicated and induction of FGF2-GFP expression, proteins localized to the cell surface were biotinylated with a membrane-impermeable reagent. Following quenching of the biotinylation reagent, biotinylated proteins were purified using streptavidin beads. Following SDS-PAGE analyzing both the total lysate (input termed “cells”; 1.7%) and the biotinylated cell surface fraction (33%), a Western analysis was conducted to detect the secreted population of FGF2-GFP. Using appropriate fluorescent secondary antibodies, both FGF2-GFP and GAPDH (used as a control protein restricted to the intracellular space) were quantified using the LI-COR Odyssey imaging platform. FGF2-GFP secretion quantified under mock conditions (0.5% DMSO) was defined as 100% secretion efficiency. Standard deviations are shown from three independent experiments, each of which was conducted in two technical replicates. A two-tailed and unpaired T-test was conducted to assess statistical significance (* p<0.05, ** p<0.01, *** p<0.001, **** p<0.0001). “NS” indicates absence of significant differences.
Secreted FGF2 remains bound to heparan sulfates on cell surfaces without release into cell culture supernatants. This allows for biochemical detection of the secreted population based upon cell surface biotinylation experiments. CHO cells stably expressing FGF2-GFP in a doxycycline-dependent manner were cultivated in the presence of compounds #6, #14, #21, #18 and #19 (see FIGS. 4 and 5) at 10 μM, 25 μM and 50 μM in 0.5% DMSO (final concentration) as well as under mock conditions. […] Using appropriate fluorescent secondary antibodies, FGF2-GFP and GAPDH were quantified using the LI-COR Odyssey imaging platform. […]

| Compound | inhibition of FGF2 secretion from cells |
| --- | --- |
| COC(=O)c1c(C)[nH]c(C(=O)OCc2cc(=O)n3c(C)cccc3n2)c1C [compound #6] | inhibition was observed in a dose-dependent manner |
| CC(=O)c1c(C)[nH]c(C(=O)CSc2nc3cc(Cl)cnc3[nH]2)c1C [compound #21] | inhibition was stronger at 10 μM compared to higher concentrations; also recorded: robust inhibition at 10 μM and somewhat less efficient inhibition at 25 and 50 μM |
| CC(=O)c1c(C)[nH]c(C(=O)OCc2cc(=O)n3cc(Br)ccc3n2)c1C [compound #14] | inhibition was observed in a dose-dependent manner |
